From patent US20240197869A1, “HYPERACTIVATORS OF MAMMALIAN DENDRITIC CELLS” (Corner Therapeutics, Inc., priority 2021, published 2024)
Entries after “also recorded” stand apart in the source; their conditions may differ. Residues, ends and D or L forms follow the SMILES beside them. *: point of attachment. X1 = CCCCCCCCCCCCCCCC(=O)OCC(C*)OC(=O)CCCCCCCCCCCCCCC

Columns and labels:
[1] = test system: human monocyte-derived dendritic cells (moDCs); assay: DAMP screen: IL-1β secretion by LPS-activated human moDCs (ELISA); format: cell-based
Procedure: Danger-Associated Molecular Pattern (DAMP) Screen.
(§1) Quantification of IL-1beta Secretion. IL-1beta secretion was assessed using the ELISA MAX Deluxe Set Human IL-1beta kit (Biolegend). ELISAs were performed according to manufacturer's instructions with the following modifications: i) total sample volume for incubation was reduced from […] the top standard was prepared at […], with two-fold dilutions to […]; and iii) sample incubation was completed overnight at 4 C on an orbital shaker. […] To determine IL-1beta concentration in supernatants, sample IL-1beta concentrations were interpolated using a standard curve via 4PL analysis on GraphPad Prism 9 (GraphPad Software). The interpolated results of samples were then adjusted for any dilutions made to the supernatant.

[2] = test system: human monocyte-derived dendritic cells (moDCs); assay: Lipid titration: IL-1β secretion by LPS-activated human moDCs; format: cell-based
Procedure: as §1

[3] = test system: human monocyte-derived dendritic cells (moDCs); assay: DAMP screen: viability of human moDCs (CellTiter-Glo)
Procedure: Danger-Associated Molecular Pattern (DAMP) Screen. After 6 days of differentiation into moDC, cells were collected and counted. Cells were plated at 100,000 cells/well in R10 media in 96-well flat bottom tissue culture-treated plates. LPS, serotype O55:B5 (Enzo Life Sciences) was added to a final concentration of 1 μg/mL in each well. […] Cells were incubated at 37° C., 5% CO2 for two days. Cell cultures were then used for endpoint analyses.
Endpoint Analyses. After culturing moDCs with PAMPs and DAMPs for two days, supernatant and cell samples were collected for analysis.
Quantification of Cell Viability. Cell viability was assessed by quantifying the presence of ATP as an indicator of metabolically active cells using the CellTiter-Glo Luminescent Cell Viability Assay (Promega). Metabolic activity was assessed following manufacturer's instructions. The CellTiter-Glo reagent was mixed with the cell pellets and remaining supernatant, and transferred to a white, opaque 96-well plate. Luminescence was measured on all wavelengths on a Spectramax iD3 plate reader (Molecular Devices) using an integration time of 500 ms. Percent viability was calculated relative to the control condition of moDCs treated with LPS.

[4] = test system: human monocyte-derived dendritic cells (moDCs); assay: Lipid titration: viability of human moDCs (CellTiter-Glo); conditions: 10.3 μM lipid + LPS 1 μg/mL, 2 days; relative to LPS-treated moDCs; Table 1-5
[5] = test system: human monocyte-derived dendritic cells (moDCs); assay: PAMP screen: IL-1β secretion by human moDCs with PRR agonist and 22:0 Lyso PC; format: cell-based; conditions: 2 days
Procedure: (§2) Pathogen-Associated Molecular Pattern (PAMP) Screen. Innate immune signaling pathway agonists were purchased from Invivogen. Lyophilized stocks were reconstituted and stored according to manufacturer's instructions and at recommended concentrations. […] Innate immune signaling agonists were diluted in R10 media to the manufacturer's recommended working concentration and then added onto cells. 22:0 Lyso PC was then reconstituted from a lyophilized stock in R10 and then further diluted. The lipid was added onto cells at a final concentration of 20 μM. Cells were incubated for 2 days, then cultures were collected for endpoint analyses.
as §1

[6] = test system: human monocyte-derived dendritic cells (moDCs); assay: PAMP screen: viability of human moDCs with PRR agonist and 22:0 Lyso PC; format: cell-based; conditions: 2 days
Procedure: as §2
Quantification of Cell Viability.

[7] = test system: canine peripheral blood mononuclear cells (PBMCs); assay: IL-1β secretion by canine PBMCs (ELISA); format: cell-based; conditions: stimulus as labelled, no hyperactivating lipid, 2 days
Procedure: (§3) Isolation of PBMCs from Whole Blood. PBMCs were isolated from whole blood using density gradient centrifugation with Ficoll-Paque PLUS (Cytivia). Whole blood was diluted 1:1 with PBS, layered on top of Ficoll-Paque PLUS and centrifuged at 1000×g for 30 minutes at room temperature. PBMCs were collected, washed twice in PBS, and incubated with Ack lysis buffer (Lonza) to remove any remaining red blood cells.
(§4) Cell Culture and Stimulation. […] Cells were plated at 1×10^5 (canine cells) or 1×10^6 (human cells) per well in 96-well flat bottom tissue culture plates. Lyophilized Vaccigrade R848 (Invivogen) was reconstituted and diluted according to manufacturer's recommendations and added to cells at a final concentration of 1 μg/mL.
Quantification of Cytokine Secretion. IL-1β secretion from human PBMCs was assessed using one of the following kits: ELISA MAX Deluxe Set Human IL-1β kit (Biolegend), Invitrogen Human IL-1β kit, or the Lumit™ Human IL-1β Immunoassay (Promega). IFNγ secretion from human PBMCs was assessed using the ELISA MAX Deluxe Set Human IFNγ (Biolegend) and TNFα secretion from human PBMCs was assessed using the Human TNFα Uncoated ELISA kit (Invitrogen). […] IL-1β secretion from canine PBMCs was assessed using the Canine IL-1β/IL-1F2 DuoSet ELISA (R&D) according to manufacturer's instructions with the following modifications: i) total sample+buffer volume for incubation was reduced from 100 μL to 50 μL; ii) sample incubation was completed overnight at 4° C. on an orbital shaker. For all ELISAs, absorbance was measured at 450 nm, with a 570 nm correction, using a Spectramax M5e plate reader (Molecular Devices). For Lumit™ assays, luminescence was measured on all wavelengths using a Spectramax M5e plate reader (Molecular Devices) with an integration time of 500 ms. […]

[8] = test system: human PBMCs; assay: Cytokine secretion (IL-1β, IFNγ, TNFα) by human PBMCs; format: cell-based; conditions: stimulus as labelled, no hyperactivating lipid, 2 days
Procedure: as §3, §4
Quantification of Cytokine Secretion. IL-1β secretion from human PBMCs was assessed using one of the following kits: ELISA MAX Deluxe Set Human IL-1β kit (Biolegend), Invitrogen Human IL-1β kit, or the Lumit™ Human IL-1β Immunoassay (Promega). IFNγ secretion from human PBMCs was assessed using the ELISA MAX Deluxe Set Human IFNγ (Biolegend) and TNFα secretion from human PBMCs was assessed using the Human TNFα Uncoated ELISA kit (Invitrogen). ELISAs were performed according to manufacturer's instructions with the following modifications: i) total sample+buffer volume for incubation was reduced from 100 μL to 50 μL; ii) the top standard was prepared at […], with two-fold dilutions to […]; and iii) sample incubation was completed overnight at 4 C on an orbital shaker. Lumit™ assays were performed according to manufacturer's instructions. IL-1β secretion from canine PBMCs was assessed using the Canine IL-1β/IL-1F2 DuoSet ELISA (R&D) according to manufacturer's instructions with the following modifications: i) total sample+buffer volume for incubation was reduced from 100 μL to 50 μL; ii) sample incubation was completed overnight at 4° C. on an orbital shaker. For all ELISAs, absorbance was measured at 450 nm, with a 570 nm correction, using a Spectramax M5e plate reader (Molecular Devices). For Lumit™ assays, luminescence was measured on all wavelengths using a Spectramax M5e plate reader (Molecular Devices) with an integration time of 500 ms. To determine cytokine concentrations in supernatants, sample concentrations were interpolated using a standard curve via 4PL analysis on GraphPad Prism 9 (GraphPad Software). The interpolated results of samples were then adjusted for any dilutions made to the supernatant.

[9] = 82.5 μM lipid + LPS, selected lipids, Table 1-3 (repeats Table 1-1)
[10] = high dose PAMP + 22:0 Lyso PC 20 μM

CCCCCCCCCCCCCCCC(=O)OC[C@H](COP(=O)([O-])OCC[N+](C)(C)C)OC(=O)CCCC=O [POVPC, 1-palmitoyl-2-(5′-oxo-valeroyl)-sn-glycero-3-phosphocholine, reference compound]
IL-1β secretion ([1]; 41.3 μM lipid + LPS 1 μg/mL, 2 days, Table 1-2): 121.5 pg/mL | IL-1β secretion [1, 9]: 168.5 pg/mL | IL-1β secretion ([2]; 10.3 μM lipid + LPS 1 μg/mL, 2 days, Table 1-5): 49.1 pg/mL | IL-1β secretion ([2]; 20.6 μM lipid + LPS, human moDCs, 4 donors, mean (SD in wrapped line below)): 60.6 pg/mL | Activity Units (AU) ± SD (lipid activity index) ([2]; reciprocal of lowest concentration giving IL-1β two-fold over LPS x highest IL-1β signal, lipid 1.3-82.5 μM + LPS): 0.00 ± 0.00 AU | Relative Viability (%) ± SD ([3]; 41.3 μM lipid + LPS 1 μg/mL, 2 days, relative to LPS-treated moDCs, Table 1-2): 92.1% | Relative Viability (%) ± SD ([3]; 82.5 μM lipid + LPS 1 μg/mL, 2 days, relative to LPS-treated moDCs, Table 1-1): 79.5% | Relative Viability (%) ± SD [3, 9]: 79.5% | Relative Viability (%) ± SD [4]: 97.3%

CCCCCCCCCCCCCCCC(=O)OCC(CSC[C@H](N)C(=O)N[C@@H](CO)C(=O)N[C@@H](CCCCN)C(=O)N[C@@H](CCCCN)C(=O)N[C@@H](CCCCN)C(=O)N[C@@H](CCCCN)C(=O)O)OC(=O)CCCCCCCCCCCCCCC (some centres unmarked) [Pam2CSK4] (H-C(X1)SKKKK-OH; N-terminus and C-terminus assumed)
IL-1β secretion (in words) [5, 10]: enabled IL-1β secretion; also recorded: induced IL-1β secretion | IL-1β secretion (in words) ([5]; low dose PAMP + 22:0 Lyso PC): IL-1β secretion was only observed | cell viability (in words) [6, 10]: little to no effect on cell viability | cell viability (in words) ([6]; low dose PAMP + 22:0 Lyso PC): Neither R848 nor Pam2CSK4 at the lower concentrations tested affected cell viability

CCOC(=O)C1=Cc2ccc(-c3cccc(C#N)c3)cc2N=C(N)C1 [TL8-506]
IL-1β secretion (in words) [5, 10]: enabled IL-1β secretion; also recorded: induced IL-1β secretion

GM-CSF: human GM-CSF (Peprotech), added at 10 ng/mL
IL-1β secretion (in words) [7]: neither GM-CSF nor 2′3′cGAMP induced significant IL-1β secretion | IFNγ secretion, fold change relative to R848 alone (in words) [8]: neither GM-CSF nor 2′3′cGAMP elicited a substantial fold change in IFNγ secretion over R848 alone | IL-1β secretion (in words) [8]: did not induce levels of IL-1β secretion from human PBMCs significantly above background levels
